Reference: paper PMC10275055, “Preventing recurrence in Sonic Hedgehog Subgroup Medulloblastoma using the OLIG2 inhibitor CT-179” (Research Square, 2023)

Experiments:
KIT = KIT (Homo sapiens, UniProt P10721); assay: Kinase profiling (KINOMEscan / SelectScreen), KIT; format: biochemical; conditions: ATP equal to Km
Method: (§1) Effect of CT-179 on protein kinase activity was evaluated using the Thermofisher Scientific SelectScreen Kinase Profiling Service. Over 400 human protein kinases were tested in the presence of 1 μM final concentration of CT-179 at an ATP concentration equal to the known ATP Km for each kinase. The experiment was done by Curtana Pharmaceuticals. Data is presented as percentage of inhibition of enzyme activity. Software CORAL was used to make the kinome tree, which is available from: http://phanstiel-lab.med.unc.edu/CORAL/.

HEK293 cells = assay: Cell viability, OLIG2-negative HEK293; format: cell-based, human; conditions: HEK293, does not express OLIG2
Method: (§2) Cell proliferation was determined by a CellTiter 96® Non-Radioactive Cell Proliferation Assay (Promega) kit. Absorbance at 490 nm was measured on a Biotek PowerWave (Biotek, USA) plate scanner to obtain raw data. Average absorbance from triplicate wells were plotted against concentration using GraphPad Prism software v.7.0 (GraphPad software). At the indicated time points, cells were stained using FITC-conjugated Annexin V and Annexin V binding buffer (BD Pharmingen™) according to the manufacturer’s instructions. Annexin V or propidium iodide (PI)-positive cells were analyzed using a Fortessa 5 Flow Cytometer (Becton Dickinson) and data was analyzed using FlowJo® software (Tree Star).

Med-813 MB cell line = assay: Cell viability, 7 days treatment, Med-813; format: cell-based; conditions: Homo sapiens, 168 h; Med-813, 7 days
Method: as §2

U87-MG glioma cells = assay: Cell viability, OLIG2-negative U87-MG; format: cell-based; conditions: does not express OLIG2
Method: as §2

[1] = target: T1, Fetal Liver Tyrosine Kinase 3 (FLT3) (Homo sapiens, UniProt P36888); assay: Kinase profiling (KINOMEscan / SelectScreen) and dose response follow-up, FLT3; format: biochemical; conditions: ATP equal to Km
T1 sequence (P36888 27-993): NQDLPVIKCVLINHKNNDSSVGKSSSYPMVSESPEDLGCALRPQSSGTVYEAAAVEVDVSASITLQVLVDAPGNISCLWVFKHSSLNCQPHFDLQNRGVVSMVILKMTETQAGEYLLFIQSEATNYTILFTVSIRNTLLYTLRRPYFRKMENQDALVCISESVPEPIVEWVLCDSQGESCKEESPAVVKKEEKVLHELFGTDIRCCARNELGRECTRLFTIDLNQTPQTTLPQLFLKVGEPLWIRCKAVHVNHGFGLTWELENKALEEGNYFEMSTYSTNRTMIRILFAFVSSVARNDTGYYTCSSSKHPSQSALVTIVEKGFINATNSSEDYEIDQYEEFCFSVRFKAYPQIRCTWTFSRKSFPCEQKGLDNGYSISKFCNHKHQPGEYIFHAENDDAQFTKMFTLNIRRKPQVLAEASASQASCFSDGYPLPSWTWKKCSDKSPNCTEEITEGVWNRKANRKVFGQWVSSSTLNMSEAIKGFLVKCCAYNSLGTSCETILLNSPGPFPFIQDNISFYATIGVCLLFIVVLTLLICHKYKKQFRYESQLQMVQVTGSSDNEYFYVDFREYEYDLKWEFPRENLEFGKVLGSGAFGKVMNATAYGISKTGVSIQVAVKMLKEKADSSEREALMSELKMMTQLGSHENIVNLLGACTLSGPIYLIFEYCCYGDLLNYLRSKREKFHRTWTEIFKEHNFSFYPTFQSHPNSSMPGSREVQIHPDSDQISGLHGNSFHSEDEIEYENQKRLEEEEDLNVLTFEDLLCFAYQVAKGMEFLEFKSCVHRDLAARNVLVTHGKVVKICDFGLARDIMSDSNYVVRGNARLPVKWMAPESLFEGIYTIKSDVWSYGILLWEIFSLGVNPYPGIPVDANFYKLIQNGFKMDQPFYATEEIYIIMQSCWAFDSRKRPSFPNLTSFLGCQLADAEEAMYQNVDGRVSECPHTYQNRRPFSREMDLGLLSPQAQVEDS
Method: as §1

Sequence of KIT (P10721 26-976): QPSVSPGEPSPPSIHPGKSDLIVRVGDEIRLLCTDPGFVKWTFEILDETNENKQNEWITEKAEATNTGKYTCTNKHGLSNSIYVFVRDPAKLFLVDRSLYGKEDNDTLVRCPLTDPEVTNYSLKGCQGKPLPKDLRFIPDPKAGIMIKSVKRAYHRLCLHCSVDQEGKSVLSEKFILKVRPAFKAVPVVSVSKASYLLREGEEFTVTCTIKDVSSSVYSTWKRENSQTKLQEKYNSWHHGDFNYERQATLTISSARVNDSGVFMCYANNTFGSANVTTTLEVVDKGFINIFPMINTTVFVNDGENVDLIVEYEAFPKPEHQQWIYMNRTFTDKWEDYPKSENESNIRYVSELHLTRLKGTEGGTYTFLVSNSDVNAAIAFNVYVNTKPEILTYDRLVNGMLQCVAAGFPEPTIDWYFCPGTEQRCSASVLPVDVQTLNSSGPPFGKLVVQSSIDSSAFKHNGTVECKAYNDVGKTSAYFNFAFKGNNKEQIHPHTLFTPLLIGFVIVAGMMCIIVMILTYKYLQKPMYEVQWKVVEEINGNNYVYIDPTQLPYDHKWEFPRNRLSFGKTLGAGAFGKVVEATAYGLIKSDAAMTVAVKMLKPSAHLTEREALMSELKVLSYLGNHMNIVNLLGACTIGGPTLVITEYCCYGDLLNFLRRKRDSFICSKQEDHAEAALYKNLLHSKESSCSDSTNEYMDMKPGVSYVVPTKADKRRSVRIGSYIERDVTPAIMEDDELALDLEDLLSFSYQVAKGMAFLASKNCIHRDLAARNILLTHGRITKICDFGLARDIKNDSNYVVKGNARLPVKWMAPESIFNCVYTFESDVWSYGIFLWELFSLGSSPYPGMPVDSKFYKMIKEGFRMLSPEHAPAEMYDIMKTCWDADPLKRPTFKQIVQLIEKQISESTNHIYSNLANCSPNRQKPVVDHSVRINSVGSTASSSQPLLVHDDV

In the case of `Cc1cc(NCCCN(C)C)nc(NC(=O)Nc2ccc(Cl)c(Cl)c2)n1` [CT-179], the inhibition at 1 µM (KIT) is reported as 66%, the growth suppression (HEK293 cells) is reported as “not suppressed” and the IC50 (Med-813 MB cell line) is reported as 965 nM. The growth suppression (U87-MG glioma cells) was “not suppressed” and the inhibition at 1 µM [1] was 84%.
